US7291621B2, “Substituted biaryl amides C5a receptor modulators” (Neurogen Corporation, priority 2002, dated 2007)
Like-named read-outs stand apart in the source and are kept apart here.

Molecular target: T1, C5a receptor (Homo sapiens, UniProt P21730)
T1 construct: endogenous in cells; host or cells: U937 cells differentiated with 1 mM dibutyryl cAMP
T1 sequence (P21730 1-350): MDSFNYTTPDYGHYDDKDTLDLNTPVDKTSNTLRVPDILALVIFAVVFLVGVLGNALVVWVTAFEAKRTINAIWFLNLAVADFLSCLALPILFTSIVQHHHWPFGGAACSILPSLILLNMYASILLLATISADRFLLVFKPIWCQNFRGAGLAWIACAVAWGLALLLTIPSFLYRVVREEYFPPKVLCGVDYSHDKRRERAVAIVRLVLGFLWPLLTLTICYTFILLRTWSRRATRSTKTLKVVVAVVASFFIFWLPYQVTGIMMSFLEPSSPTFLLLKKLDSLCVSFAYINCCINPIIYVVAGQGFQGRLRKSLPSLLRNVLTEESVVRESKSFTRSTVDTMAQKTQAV
Test: standard assay of C5a receptor mediated calcium mobilization
Assay type: cell-based
Settings: asterisk = tested in C5a receptor mediated calcium mobilization assay, read-out: Ca2+ Mob.
Method: U937 cells are grown in differentiation media (1 mM dibutyrl cAMP in RPMI 1640 medium containing 10% fetal bovine serum) for 48 hrs at 37° C. then reseeded onto 96-well plates suitable for use in a FLIPR™ Plate Reader (Molecular Devices Corp., Sunnyvale Calif.). Cells are grown an additional 24 hours (to 70-90% confluence) before the assay. The cells are then washed once with Krebs Ringer solution. FLUO-3 calcium sensitive dye (Molecular Probes, Inc. Eugene, Oreg.) is added to 10 μg/mL and incubated with the cells at room temperature for 1 to 2 hours. The 96 well plates are then washed to remove excess dye. Fluorescence responses, measured by excitation at 480 nm and emission at 530 nm, are monitored upon the addition of human C5a to the cells to a final concentration of 0.01-30.0 nM, using the FLIPR™ device (Molecular Devices).
The calcium mobilization assay described above may be readily adapted for identifying test compounds that have agonist or antagonist activity at the human C5a receptor.
For example, in order to identify antagonist compounds, differentiated U937 cells are washed and incubated with Fluo-3 dye as described above. One hour prior to measuring the fluorescence signal, a subset of the cells is incubated with 1 μM of at least one compound to be tested. The fluorescence response upon the subsequent addition of 0.3 nM (final concentration) human recombinant C5a is monitored using the FLIPR™ plate reader. Antagonist compounds elicit at least a 2-fold decrease in the fluorescence response relative to that measured in the presence of human C5a alone. Preferred antagonist compounds elicit at least a 5-fold, preferably at least a 10-fold, and more preferably at least a 20-fold decrease in the fluorescence response relative to that measured in the presence of human C5a alone.

| Ki (Table I) | Ki (Table III) | Compound |
| --- | --- | --- |
| < 1000 nM |  | COc1ccc(-c2ccc(C)s2)c(C(=O)N(Cc2ccccc2)C2Cc3ccccc3C2)c1 [compound 70, N-benzyl-N-(indan-2-yl)-5-methoxy-2-(5-methylthien-2-yl)benzamide] |
| < 1000 nM |  | Cc1ccc(-c2ccsc2)c(C(=O)N(Cc2ccccc2)C2Cc3ccccc3C2)c1 [compound 118, N-benzyl-N-(indan-2-yl)-5-methyl-2-thien-3-ylbenzamide] |
| < 1000 nM |  | O=C(c1ccccc1-c1ccccc1F)N(Cc1ccccc1)Cc1ccccc1 [compound 87, N,N-dibenzyl-2′-fluoro-1,1′-biphenyl-2-carboxamide] |
| < 1000 nM |  | COc1ccc(-c2ccccc2)c(C(=O)N(Cc2ccc(F)c(F)c2)C2Cc3ccccc3C2)c1 [compound 111, N-(3,4-difluorobenzyl)-N-(indan-2-yl)-4-methoxy-1,1′-biphenyl-2-carboxamide] |
| < 1000 nM |  | Cc1ccc(-c2ccccc2C(=O)N(Cc2ccccc2)C2Cc3ccccc3C2)cc1 [compound 58, N-benzyl-N-(indan-2-yl)4′-methyl-1,1′-biphenyl-2-carboxamide] |
| < 1000 nM |  | O=C(c1ccccc1-c1ccc(Cl)cc1Cl)N(Cc1ccccc1)Cc1ccccc1 [compound 52, N,N-dibenzyl-2′,4′-dichloro-1,1′-biphenyl-2-carboxamide] |
| < 1000 nM |  | O=C(c1cccc2c1-c1ccccc1C2)N(Cc1ccc2c(c1)OCO2)C1Cc2ccccc2C1 [compound 65, N-(1,3-benzodioxol-5-ylmethyl)-N-(indan-2-yl)-9H-fluorene-4-carboxamide] |
| < 1000 nM |  | Cc1ccc(-c2cccc(F)c2C(=O)N(Cc2ccccc2)C2Cc3ccccc3C2)s1 [compound 114, N-benzyl-N-(indan-2-yl)-2-fluoro-6-(5-methylthien-2-yl)benzamide] |
| < 1000 nM |  | COc1ccc(-c2ccccc2)c(C(=O)N(Cc2ccccc2)C2Cc3ccccc3C2)c1 [compound 66, N-benzyl-N-(indan-2-yl)-4-methoxy-1,1′-biphenyl-2-carboxamide] |
| < 1000 nM |  | Cc1ccc(CN(C(=O)c2ccccc2-c2ccccc2)C2Cc3ccccc3C2)cc1 [compound 75, N-(indan-2-yl)-N-(4-methylbenzyl)-1,1′-biphenyl-2-carboxamide] |
| < 1000 nM |  | O=C(c1ccccc1-c1ccccc1)N(Cc1ccccc1)C1Cc2ccccc2C1 [compound 60, N-benzyl-N-(indan-2-yl)-1,1′-biphenyl-2-carboxamide] |
| < 1000 nM |  | COc1ccc(-c2ccccc2)c(C(=O)N(Cc2cccc(F)c2)C2Cc3ccccc3C2)c1 [compound 109, N-(indan-2-yl)-N-(3-fluorobenzyl)-4-methoxy-1,1′-biphenyl-2-carboxamide] |
| < 1000 nM |  | CCSc1ccc(-c2ccccc2C(=O)N(Cc2ccccc2)Cc2ccccc2)cc1 [compound 38, N,N-dibenzyl-4′-(ethylthio)-1,1′-biphenyl-2-carboxamide] |
| < 1000 nM |  | O=C(c1ccccc1-c1ccccc1Cl)N(Cc1ccccc1)Cc1ccccc1 [compound 48, N,N-dibenzyl-2′-chloro-1,1′-biphenyl-2-carboxamide] |
| < 1000 nM |  | O=C(c1cc(Cl)ccc1-c1ccccc1)N(Cc1ccc2c(c1)OCO2)C1Cc2ccccc2C1 [compound 139, N-(1,3-benzodioxol-5-ylmethyl)-4-chloro-N-(indan-2-yl)-1,1′-biphenyl-2-carboxamide] |
| < 1000 nM |  | Cc1cc(CN(Cc2ccccc2)C(=O)c2ccccc2-c2ccccc2)cc(C)c1O [compound 150, N-benzyl-N-(4-hydroxy-3,5-dimethylbenzyl)-1,1′-biphenyl-2-carboxamide] |
| < 1000 nM |  | O=C(c1cc(Cl)ccc1-c1ccccc1)N(Cc1ccccc1F)C1Cc2ccccc2C1 [compound 134, 4-chloro-N-(indan-2-yl)-N-(2-fluorobenzyl)-1,1′-biphenyl-2-carboxamide] |
| < 1000 nM |  | CSc1ccccc1-c1ccccc1C(=O)N(Cc1ccccc1)Cc1ccccc1 [compound 37, N,N-dibenzyl-2′-(methylthio)-1,1′-biphenyl-2-carboxamide] |
|  | < 1000 nM | Cc1ccc2ccccc2c1C(=O)N(CCc1ccccc1)C1Cc2ccccc2C1 [compound 235, 2-Methyl-naphthalene-1-carboxylic acid indan-2-yl-phenethyl-amide] |

| Ki (Table I) | Ki (Table III) | Compound |
| --- | --- | --- |
|  | < 1000 nM | COc1ccc2ccccc2c1C(=O)N(Cc1ccccc1C)C1Cc2ccccc2C1 [compound 224, 2-Methoxy-naphthalene-1-carboxylic acid (2-methyl-benzyl)-indan-2-yl-amide] |
| < 1000 nM |  | COc1ccc(-c2ccccc2)c(C(=O)N(Cc2ccc(F)cc2)C2Cc3ccccc3C2)c1 [compound 110, N-(indan-2-yl)-N-(4-fluorobenzyl)-4-methoxy-1,1′-biphenyl-2-carboxamide] |
| < 1000 nM |  | O=C(c1ccccc1-c1ccc(OC(F)(F)F)cc1)N(Cc1ccccc1)Cc1ccccc1 [compound 36, N,N-dibenzyl-4′-(trifluoromethoxy)-1,1′-biphenyl-2-carboxamide] |
| < 1000 nM |  | COc1ccc(-c2ccccc2)c(C(=O)N(Cc2cccc(C)c2)C2Cc3ccccc3C2)c1 [compound 106, N-(indan-2-yl)-4-methoxy-N-(3-methylbenzyl)-1,1′-biphenyl-2-carboxamide] |
| < 1000 nM |  | Cc1cc(CN(Cc2ccccc2)C(=O)c2cc(Cl)ccc2-c2ccccc2)cc(C)c1O [compound 142, N-benzyl-4-chloro-N-(4-hydroxy-3,5-dimethylbenzyl)-1,1′-biphenyl-2-carboxamide] |
| < 1000 nM |  | O=C(c1ccccc1-c1ccsc1)N(Cc1cccc(-c2ccsc2)c1)C1Cc2ccccc2C1 [compound 85, N-(indan-2-yl)-2-thien-3-yl-N-(3-thien-3-ylbenzyl)benzamide] |
| < 1000 nM |  | O=C(c1cc(Cl)ccc1-c1ccccc1)N(Cc1ccc(F)c(F)c1)C1Cc2ccccc2C1 [compound 137, 4-chloro-N-(3,4-difluorobenzyl)-N-(indan-2-yl)-1,1′-biphenyl-2-carboxamide] |
| < 1000 nM |  | COc1ccc(CN(C(=O)c2cc(Cl)ccc2-c2ccccc2)C2Cc3ccccc3C2)cc1 [compound 138, 4-chloro-N-(indan-2-yl)-N-(4-methoxybenzyl)-1,1′-biphenyl-2-carboxamide] |
| < 1000 nM |  | COc1cccc(-c2ccccc2C(=O)N(Cc2ccc(C)cc2)C2Cc3ccccc3C2)c1 [compound 89, N-(indan-2-yl)-3′-methoxy-N-(4-methylbenzyl)-1,1′-biphenyl-2-carboxamide] |
| < 1000 nM |  | Cc1ccccc1-c1ccccc1C(=O)N(Cc1ccccc1)Cc1ccccc1 [compound 53, N,N-dibenzyl-2′-methyl-1,1′-biphenyl-2-carboxamide] |
| < 1000 nM |  | Cc1cccc(CN(C(=O)c2cc(Cl)ccc2-c2ccccc2)C2Cc3ccccc3C2)c1 [compound 132, 4-chloro-N-(indan-2-yl)-N-(3-methylbenzyl)-1,1′-biphenyl-2-carboxamide] |
| < 1000 nM |  | COc1cccc(CN(C(=O)c2cc(OC)ccc2-c2ccc(C)s2)C2Cc3ccccc3C2)c1 [compound 102, N-(indan-2-yl)-5-methoxy-N-(3-methoxybenzyl)-2-(5-methylthien-2-yl)benzamide] |
| < 1000 nM |  | COc1cccc(CN(C(=O)c2cc(OC)ccc2-c2ccccc2)C2Cc3ccccc3C2)c1 [compound 103, N-(indan-2-yl)-4-methoxy-N-(3-methoxybenzyl)-1,1′-biphenyl-2-carboxamide] |
|  | < 1000 nM | Cc1cccc(CN(C(=O)c2c(C)ccc3ccccc23)C2Cc3ccccc3C2)c1 [compound 230, 2-Methyl-naphthalene-1-carboxylic acid (3-methyl-benzyl)-indan-2-yl-amide] |
| < 1000 nM |  | CC(=O)Nc1cccc(-c2ccccc2C(=O)N(Cc2ccccc2)Cc2ccccc2)c1 [compound 35, 3′-(acetylamino)-N,N-dibenzyl-1,1′-biphenyl-2-carboxamide] |
| < 1000 nM |  | Cc1ccc(-c2cccc(C)c2C(=O)N(Cc2ccccc2)C2Cc3ccccc3C2)s1 [compound 115, N-benzyl-N-(indan-2-yl)-2-methyl-6-(5-methylthien-2-yl)benzamide] |
| < 1000 nM |  | O=C(c1ccccc1-c1ccccc1)N(Cc1ccccc1)Cc1ccc(OC(F)F)cc1 [compound 151, N-benzyl-N-[4-(difluoromethoxy)benzyl]-1,1′-biphenyl-2-carboxamide] |
| < 1000 nM |  | Cc1cccc(-c2ccccc2)c1C(=O)N(Cc1ccc(F)cc1)C1Cc2ccccc2C1 [compound 125, N-(indan-2-yl)-N-(4-fluorobenzyl)-3-methyl-1,1′-biphenyl-2-carboxamide] |
